Experimental findings from the METLIN SMRT retention time set (Domingo-Almenara et al. 2019) are described below.

The structures appear in SMILES notation.

This data set can be described thus: gradient 5% acetonitrile 3 min, to 50% in 2 min, to 85% in 15 min, held 3 min, 100 µL/min. The settings on record: column: Zorbax Extend-C18 2.1 x 50 mm; eluents: water / acetonitrile, 0.1% formic acid. A digest of the protocol:
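Data were gathered over 3 months by HPLC coupled to a quadrupole time-of-flight mass spectrometer, operated in positive and negative ionization mode. Mixtures of ~100 pure standards ran on a Zorbax Extend-C18 column (2.1 × 50 mm, 1.8 μm) at 100 μL/min, with water and acetonitrile each containing 0.1% formic acid and dead and dwell volumes of 40 μL and 900 μL. Retention time was read from adduct peaks picked by computer and checked manually.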
`CCC(C)NC(=O)c1ccc2ccnc(N3CCN(c4ccc(F)cc4)CC3)c2c1` (centres undefined) gave an RP-LC retention time of 785 s. The figure for `CCN1C(=O)C(C)(C(=O)NCc2cccc(Cl)c2)Oc2cccnc21` (centres undefined) is 903 s; for `O=C(C1=CN(c2ccc(F)cc2)c2cc(F)ccc2S1(=O)=O)N1CCOCC1` it is 769 s; for `CCCn1cc(S(=O)(=O)Nc2ccccc2F)c2cccnc21` it is 869 s. The figure for `Cc1cc2nn(CC(=O)Nc3ccc(F)c(Cl)c3)c(=O)n2c(Nc2ccccc2)n1` is 1070 s; for `Cc1ncsc1CN1CCC(Cc2ncc(C)n2Cc2ccccc2)C1` (centres undefined) it is 550 s. With `O=C1NC2(CCN(C(=O)c3cc(F)cc(F)c3)CC2)Nc2cc(Cl)ccc21` the figure was 774 s; with `CCOC(=O)C1=C(CN2CCN(c3ccccn3)CC2)NC(=O)NC1c1ccc(F)cc1` (centres undefined), 625 s; with `CCCCNC(=O)c1nccnc1NC(=O)c1ccccc1`, 903 s. `CCOc1ccc(CC(=O)N2CCC3(CC2)N=C(c2ccc(C)cc2)NO3)cc1` displayed an RP-LC retention time of 871 s. The figure for `O=C(Cc1cccc(F)c1)N1CCC2(CC1)Nc1ccccc1-n1cccc12` is 998 s; for `COc1ccc(N2CCN(CC(=O)N3CCC(C(N)=O)CC3)CC2)cc1` it is 885 s; for `Cn1nc(CNC(=O)c2cccs2)c2ccccc21` it is 764 s.

`COc1ccc(-n2c(=O)n(C)c(=O)c3cc(C(=O)Nc4ccc(C(N)=O)cc4)cnc32)cc1`: the RP-LC retention time is 668 s. Molecule `Cc1ccc(-n2nc3c(N4CCCC(C(=O)NCCc5ccccc5)C4)nnc(C)c3c2C)cc1` (centres undefined) had an RP-LC retention time of 766 s. `O=C(NCCc1cccs1)C1CCN(Cc2cc3ccccc3n2Cc2ccc(Cl)cc2)CC1` gave an RP-LC retention time of 846 s.

Take `COC(=O)c1ccc(NC(=O)C(=O)NCC2CCN(C(=O)Oc3ccccc3)CC2)cc1`: the RP-LC retention time is 868 s. Molecule `O=C(NC1CCCC1)N1c2ccccc2CC1c1noc(C2CCOCC2)n1` (centres undefined) showed an RP-LC retention time of 854 s. On to `COc1ccc(NC(=O)Cn2cc(C(=O)C3CC3)c3ccccc32)cc1`, for which the RP-LC retention time is 864 s. With `COc1ccc(-c2nnc(-c3ccc(-n4ccnc4)nc3)o2)c(OC)c1` the figure was 630 s; with `COCc1nn(CC2CC2)c2c1CN(C(=O)c1ccc(OC)cc1)CC2`, 715 s. With `CCn1c(=O)c(N2CCC(NC(=O)Nc3ccc(Br)cc3)CC2)nc2ccccc21` the figure was 1020 s; with `O=[N+]([O-])c1cccc(-c2nnc3c4cnn(-c5ccc(F)cc5)c4ncn23)c1`, 1080 s. The figure for `COc1ccc(-c2noc(C3CCCN3C(=O)c3cc4ccccc4[nH]3)n2)cc1OC` (centres undefined) is 971 s; for `CCN1C(=O)c2cccnc2Sc2cc(CNC(=O)c3ccccc3OC)ccc21` it is 772 s. `c1csc(-c2nc(-c3ccnc(N4CCCC4)c3)no2)c1` came in with an RP-LC retention time of 665 s.

`CN1c2ccc(Cl)cc2C(=O)NC12CCN(C(=O)c1ccc(F)cc1)CC2` displayed an RP-LC retention time of 818 s. The molecule `CCCCC#Cc1nc(NC)c2ncn([C@@H]3O[C@H](CO)C(O)[C@@H]3O)c2n1` (some centres undefined) came in with an RP-LC retention time of 724 s. The figure for `O=c1oc2cc(S(=O)(=O)NCCO)ccc2c2ccc(S(=O)(=O)NCCO)cc12` is 589 s; for `COc1ccc(C2(C(=O)N3CC(N(Cc4ccncc4)CC4CC4)C3)CCCCC2)cc1` it is 755 s. For `O=C(Cc1cccs1)NC1CC(=O)N(C2CC2)C1` (centres undefined), the RP-LC retention time came to 584 s. With `Cc1ccc(Cn2c(N3CCCC(C(=O)NCCC4=CCCCC4)C3)nc3ccsc3c2=O)cc1` (centres undefined) the figure was 1150 s; with `CCC(=O)NCc1csc(C2CCN(C(=O)C3CCC3)CC2)n1`, 614 s. The figure for `COc1ccc(N2CC(C(=O)N3CCC(c4noc(-c5ccccc5)n4)CC3)CC2=O)cc1` (centres undefined) is 855 s; for `CS(=O)(=O)N1CCC(OC2CCN(C(=O)Nc3ccccc3Cl)CC2)CC1` it is 785 s. The figure for `Cc1csc(-c2cc(S(=O)(=O)N3CCN(C)CC3)cn2CC(=O)N2CCCCC2)n1` is 654 s; for `COc1ccccc1CNC(=O)C1CCN(Cc2cn(C)c3ccc(Cl)cc23)CC1` it is 714 s; for `O=C(NC1CC1)c1cc(N2CCCC2)nc2ccccc12` it is 577 s. For `CC(Cc1ccco1)NC(=O)Cn1c(=O)c(=O)n(C)c2ncccc21` (centres undefined), the RP-LC retention time was 688 s. `Cc1ccc(CNC(=O)CCCn2c3ccccc3c3cnn(C)c(=O)c32)o1` had an RP-LC retention time of 814 s.

In the case of `O=C(CCl)NC1(C(=O)O)CCCC1`, the RP-LC retention time turned out to be 661 s. The figure for `Cn1nnc2c(SCC(=O)NCc3ccco3)ncnc21` is 631 s; for `COC(=O)c1c(NC2CCCC2)c2cccc(Cl)c2[nH]c1=O` it is 830 s; for `Cc1ccc(N2CCN(C(=O)c3cn4cc(C)ccc4n3)CC2)cc1` it is 690 s. The figure for `COc1nc2ccccc2nc1N1CCCC(C(=O)Nc2cc(F)ccc2F)C1` (centres undefined) is 1200 s. The figure for `O=C(Nc1ccsc1-c1nnc(C2CC2)o1)c1ccsc1` is 1170 s.

`COCCNC(=O)c1nnc(-c2ccc(S(=O)(=O)N3CCC(C)CC3)cc2)o1` came in with an RP-LC retention time of 838 s. The figure for `O=C(CCn1nnc2cc(-c3noc(Cc4ccc(Cl)cc4)n3)ccc21)N1CCCC1` is 921 s; for `CC1CCCN(c2nccn3c(=O)n(CC(=O)Nc4ccc(Br)cc4F)nc23)C1` (centres undefined) it is 911 s.

`O=S(=O)(c1ccccc1Cl)N1CC(COc2ccncc2)C2(CCOCC2)C1` (centres undefined): the RP-LC retention time was 574 s.

As to `O=C(NCc1ccco1)c1cc2c(=O)n(Cc3ccccc3)ccc2s1`, the RP-LC retention time is 822 s. Molecule `CCn1ccc(C(=O)N2CCCN(C3=NS(=O)(=O)C(c4ccc(F)cc4)=C3C)CC2)n1` had an RP-LC retention time of 759 s. The figure for `CCC(=O)Nc1ccc(N2CCN(CC(=O)N(C)C)CC2)cc1C(=O)O` is 573 s. The figure for `COc1ccc(-c2cnn3c(C)cc(C)nc23)cc1S(=O)(=O)NCCN(C)C` is 616 s; for `CCc1noc(NC(C)=O)c1-c1ccc(C)c(S(=O)(=O)NC2CCC(C)CC2)c1` (centres undefined) it is 937 s. `COc1ccc(NC(=O)N2C[C@H]3C[C@H](C2)[C@H]2CCCC(=O)N2C3)cc1OC` had an RP-LC retention time of 612 s. With `COc1cc(OC)cc(-n2nnc(-c3nsc(Nc4ccccc4OC)n3)c2C)c1` the figure was 1050 s; with `OCCNCc1ccc(-c2cccc(C(F)(F)F)c2)o1`, 649 s. With `CC(CNC(=O)c1cc2n(n1)CC(C)(C(=O)NC1CCCC1)N(C)C2=O)c1ccccc1` (centres undefined) the figure was 884 s.
